Results reported in patent publication US11098010B2 (priority 2017, dated 2021).
Read-outs that look alike come from different tables or passages of the source.

Tested on: HBV rcDNA in HepDE19 cells
Experiment: HepDE19 assay with bDNA quantitation of HBV rcDNA
Type: cell-based, hepatitis B virus (HBV)
Description: HepDE19 Assay with bDNA Quantitation of HBV rcDNA:
HepDE19 cell culture system is a HepG2 (human hepatocarcinoma) derived cell line that supports HBV DNA replication and cccDNA formation in a tetracycline (Tet)-regulated manner and produces HBV rcDNA and a detectable reporter molecule dependent on the production and maintenance of cccDNA (Guo, et al., 2007, J. Virol. 81:12472-12484).
HepDE19 (50,000 cells/well) were plated in 96-well collagen-coated tissue-culture treated microtiter plates in DMEM/F12 medium supplemented with 10% fetal bovine serum, 1% penicillin-streptomycin and 1 μg/mL tetracycline and incubated in a humidified incubator at 37° C. and 5% CO2 overnight. Next day, the cells were switched to fresh medium without tetracycline and incubated for 4 hours at 37° C. and 5% CO2. The cells were treated with fresh Tet-free medium with compounds at concentrations starting at 25 μM and a serial, ½ log, 8-point, titration series in duplicate. The final DMSO concentration in the assay was 0.5%. The plates were incubated for 7 days in a humidified incubator at 37° C. and 5% CO2. Following a 7 day-incubation, the level of rcDNA present in the inhibitor-treated wells was measured using a Quantigene 2.0 bDNA assay kit (Affymetrix, Santa Clara, Calif.) with HBV specific custom probe set and manufacturers instructions. Concurrently, the effect of compounds on cell viability was assessed using replicate plates, plated at a density of 5,000 cells/well and incubated for 4 days, to determine the ATP content as a measure of cell viability using the cell-titer glo reagent (CTG; Promega Corporation, Madison, Wis.) as per manufacturer's instructions. The plates were read using a Victor luminescence plate reader (PerkinElmer Model 1420 Multilabel counter) and the relative luminescence units (RLU) data generated from each well was calculated as % inhibition of the untreated control wells and analyzed using XL-Fit module in Microsoft Excel to determine EC50 and EC90 (bDNA) and CC50 (CTG) values using a 4-parameter curve fitting algorithm.
Representative compounds of the invention were tested for their abilities to inhibit formation of relaxed circular DNA (rcDNA) in a HepDE19 assay, as described elsewhere herein.

[1] = Hepatitis B virus, HepDE19, 168 h, HepDE19 cells, inhibition of rcDNA formation, 7 day incubation, top concentration 25 μM, read-out: DE-19 bDNA EC50
[2] = read-out: DE-19 bDNA EC50, HepDE19 cells, inhibition of rcDNA formation, 7 day incubation, top concentration 25 μM
[3] = Hepatitis B virus, HepDE19, 168 h, read-out: DE-19 bDNA EC50 (μM), HepDE19 cells, inhibition of rcDNA formation, 7 day incubation, top concentration 25 μM
[4] = HepDE19 cells, inhibition of rcDNA formation, 7 day incubation, top concentration 25 μM, read-out: DE-19 bDNA EC50

Structure (SMILES): O=C(NC1CCc2c(C(=O)Nc3ccc(F)c(Cl)c3)cncc21)OCc1ccccn1 (single isomer, unassigned) [Compound 271, O-Pyridin-2-ylmethyl, N-(4-((3-chloro-4-fluorophenyl)carbamoyl)-6,7-dihydro-5H-cyclopenta[c]pyridin-7-yl)carbamate]
- EC50 [1]: 5.7 µM

Structure (SMILES): COC(=O)N[C@H]1CCc2c(C(=O)Nc3ccc(F)c(F)c3)cccc21 [Compound 1, O-methyl, N—(S)-(4-((3,4-difluorophenyl)carbamoyl)-2,3-dihydro-1H-inden-1-yl) carbamate]
- EC50 [1]: 0.64 µM

Structure (SMILES): CNC(=O)N[C@H]1CCc2c(C(=O)Nc3ccc(F)c(F)c3)cccc21 [Compound 2, (S)—N-(3,4-Difluorophenyl)-1-(3-methylureido)-2,3-dihydro-1H-indene-4-carboxamide]
- EC50 [1]: 1.4 µM

Structure (SMILES): O=C(N[C@H]1CCc2c(C(=O)Nc3ccc(F)c(F)c3)cccc21)OCc1ccccn1 [Compound 3, O-Pyridin-2-ylmethyl, N—(S)-(4-((3,4-difluorophenyl)carbamoyl)-2,3-dihydro-1H-inden-1-yl) carbamate]
- EC50 [1]: 0.5 µM

Structure (SMILES): COC(=O)NC1COc2c(C(=O)Nc3ccc(F)c(F)c3)cccc21 (centres unmarked) [Compound 4, O-Methyl, N-(7-((3,4-difluorophenyl)carbamoyl)-2,3-dihydrobenzofuran-3-yl) carbamate]
- EC50 [2]: 5.3 µM

Structure (SMILES): COC(=O)NC1COc2c(C(=O)Nc3ccc(F)c(F)c3)cccc21 (centres unmarked) [Compound 5, O-Methyl, N-(7-((3,4-difluorophenyl)carbamoyl)-2,3-dihydrobenzofuran-3-yl) carbamate]
- EC50 [2]: 14 µM

Structure (SMILES): COC(=O)NC1COc2c(C(=O)Nc3ccc(F)c(F)c3)cccc21 (centres unmarked) [Compound 6, O-Methyl, N-(7-((3,4-difluorophenyl)carbamoyl)-2,3-dihydrobenzofuran-3-yl) carbamate]
- EC50 [2]: 1.3 µM

Structure (SMILES): O=C1CC[C@H](COC(=O)N[C@H]2CCc3c(C(=O)Nc4ccc(F)c(Cl)c4)ccc(F)c32)N1 [Compound 9, O—((R)-5-Oxopyrrolidin-2-yl)methyl, N—((S)-4-((3-chloro-4-fluorophenyl)carbamoyl)-7-fluoro-2,3-dihydro-1H-inden-1-yl) carbamate]
- EC50 [3]: 0.58 µM

Structure (SMILES): CC(C)(C)OC(=O)N[C@H]1CCc2c(C(=O)Nc3ccc(F)c(Cl)c3)ccc(F)c21 [Compound 10, O-tert-Butyl, N—(S)-(4-((3-chloro-4-fluorophenyl)carbamoyl)-7-fluoro-2,3-dihydro-1H-inden-1-yl) carbamate]
- EC50 [1]: 0.8 µM

Structure (SMILES): COC(=O)N[C@H]1CCc2c(C(=O)Nc3ccc(F)c(C)c3)ccc(F)c21 [Compound 11, O-Methyl, N—(S)-(7-fluoro-4-((4-fluoro-3-methylphenyl)carbamoyl)-2,3-dihydro-1H-inden-1-yl) carbamate]
- EC50 [3]: 0.21 µM

Structure (SMILES): CNC(=O)N[C@H]1CCc2c(C(=O)Nc3ccc(F)c(C)c3)ccc(F)c21 [Compound 12, (S)-7-Fluoro-N-(4-fluoro-3-methylphenyl)-1-(3-methylureido)-2,3-dihydro-1H-indene-4-carboxamide]
- EC50 [3]: 0.38 µM

Structure (SMILES): N[C@H]1CCc2c(C(=O)Nc3ccc(F)c(Cl)c3)ccc(F)c21 [Compound 13, (S)-1-Amino-N-(3-chloro-4-fluorophenyl)-7-fluoro-2,3-dihydro-1H-indene-4-carboxamide]
- EC50 [1]: > 25 µM

Structure (SMILES): O=C(N[C@H]1CCc2c(C(=O)Nc3ccc(F)c(Cl)c3)ccc(F)c21)OCCN1CCCC1=O [Compound 14, O-2-(2-Oxopyrrolidin-1-yl)ethyl, N—(S)-(4-((3-chloro-4-fluorophenyl)carbamoyl)-7-fluoro-2,3-dihydro-1H-inden-1-yl) carbamate]
- EC50 [3]: 0.45 µM

Structure (SMILES): O=C(N[C@H]1CCc2c(C(=O)Nc3ccc(F)c(Cl)c3)cccc21)OCc1ccccn1 [Compound 17]
- EC50 [3]: 0.17 µM

Structure (SMILES): O=C1CC[C@@H](COC(=O)N[C@H]2CCc3c(C(=O)Nc4ccc(F)c(Cl)c4)ccc(F)c32)N1 [Compound 18, O—((S)-5-Oxopyrrolidin-2-yl)methyl, N—((S)-4-((3-chloro-4-fluorophenyl)carbamoyl)-7-fluoro-2,3-dihydro-1H-inden-1-yl) carbamate]
- EC50 [3]: 0.34 µM

Structure (SMILES): COC(=O)N[C@H]1CCc2c(C(=O)Nc3ccc(F)c(Cl)c3)ccc(F)c21 [Compound 19, O-Methyl, N—(S)-(4-((3-chloro-4-fluorophenyl)carbamoyl)-7-fluoro-2,3-dihydro-1H-inden-1-yl) carbamate]
- EC50 [1]: 0.17 µM

Structure (SMILES): CNC(=O)N[C@H]1CCc2c(C(=O)Nc3ccc(F)c(Cl)c3)ccc(F)c21 [Compound 20, (S)—N-(3-Chloro-4-fluorophenyl)-7-fluoro-1-(3-methylureido)-2,3-dihydro-1H-indene-4-carboxamide]
- EC50 [3]: 0.32 µM

Structure (SMILES): O=C1CC[C@H](COC(=O)N[C@H]2CCc3c(C(=O)Nc4ccc(F)c(Cl)c4)cccc32)N1 [Compound 21, O—((R)-5-Oxopyrrolidin-2-yl)methyl, N—((S)-4-((3-chloro-4-fluorophenyl)carbamoyl)-2,3-dihydro-1H-inden-1-yl) carbamate]
- EC50 [3]: 0.58 µM

Structure (SMILES): O=C1CC[C@@H](COC(=O)N[C@H]2CCc3c(C(=O)Nc4ccc(F)c(Cl)c4)cccc32)N1 [Compound 22, O—((S)-5-Oxopyrrolidin-2-yl)methyl, N—((S)-4-((3-chloro-4-fluorophenyl)carbamoyl)-2,3-dihydro-1H-inden-1-yl) carbamate]
- EC50 [3]: 0.44 µM

Structure (SMILES): Cc1cc(NC(=O)c2cccc3c2CC[C@@H]3NC(=O)OCc2ccccn2)ccc1F [Compound 23, O-Pyridin-2-ylmethyl, N—(S)-(4-((4-fluoro-3-methylphenyl)carbamoyl)-2,3-dihydro-1H-inden-1-yl) carbamate]
- EC50 [1]: 0.45 µM

Structure (SMILES): Cc1cc(NC(=O)c2cccc3c2CC[C@@H]3NC(=O)OC[C@H]2CCC(=O)N2)ccc1F [Compound 24, O—((R)-5-Oxopyrrolidin-2-yl)methyl, N—((S)-4-((4-fluoro-3-methylphenyl)carbamoyl)-2,3-dihydro-1H-inden-1-yl) carbamate]
- EC50 [3]: 1.5 µM

Structure (SMILES): Cc1cc(NC(=O)c2cccc3c2CC[C@@H]3NC(=O)OC[C@@H]2CCC(=O)N2)ccc1F [Compound 25, O—((S)-5-Oxopyrrolidin-2-yl)methyl, N—((S)-4-((4-fluoro-3-methylphenyl)carbamoyl)-2,3-dihydro-1H-inden-1-yl) carbamate]
- EC50 [3]: 1.1 µM

Structure (SMILES): O=C(N[C@H]1CCc2c(C(=O)Nc3ccc(F)c(Cl)c3)ccc(F)c21)OCC(=O)N1CCCC1 [Compound 26, O-2-Oxo-2-(pyrrolidin-1-yl)ethyl, N—(S)-(4-((3-chloro-4-fluorophenyl)carbamoyl)-7-fluoro-2,3-dihydro-1H-inden-1-yl) carbamate]
- EC50 [3]: 0.44 µM

Structure (SMILES): O=C(NC1CSc2c(C(=O)Nc3ccc(F)c(F)c3)cccc21)OCc1ccccn1 (centres unmarked) [Compound 27, O-pyridin-2-ylmethyl, N-(7-((3,4-difluorophenyl)carbamoyl)-2,3-dihydrobenzo[b]thiophen-3-yl) carbamate]
- EC50 [4]: 1.4 µM

Structure (SMILES): O=C(NC1CSc2c(C(=O)Nc3ccc(F)c(Cl)c3)cccc21)OCc1ccccn1 (centres unmarked) [Compound 28, O-pyridin-2-ylmethyl, N-(7-((3-chloro-4-fluorophenyl)carbamoyl)-2,3-dihydrobenzo[b]thiophen-3-yl) carbamate]
- EC50 [4]: 0.76 µM

Structure (SMILES): COC(=O)NC1CSc2c(C(=O)Nc3ccc(F)c(Cl)c3)cccc21 (centres unmarked) [Compound 29, O-methyl, N-(7-((3-chloro-4-fluorophenyl)carbamoyl)-2,3-dihydrobenzo[b]thiophen-3-yl) carbamate]
- EC50 [4]: 1.6 µM

Structure (SMILES): O=C(N[C@H]1CCc2c(C(=O)Nc3ccc(F)c(Cl)c3)ccc(F)c21)OCc1ccccn1 [Compound 32, O-Pyridin-2-ylmethyl, N—(S)-(4-((3-chloro-4-fluorophenyl)carbamoyl)-7-fluoro-2,3-dihydro-1H-inden-1-yl) carbamate]
- EC50 [1]: 0.11 µM

Structure (SMILES): O=C(NC1CSc2c(C(=O)Nc3ccc(F)c(Cl)c3)cccc21)OCc1ccccn1 (centres unmarked) [Compound 35, O-Pyridin-2-ylmethyl, N-(7-((3-chloro-4-fluorophenyl)carbamoyl)-2,3-dihydrobenzo[b]thiophen-3-yl) carbamate]
- EC50 [4]: 0.78 µM

Structure (SMILES): O=C(NC1CSc2c(C(=O)Nc3ccc(F)c(Cl)c3)cccc21)OCc1ccccn1 (centres unmarked) [Compound 36, O-Pyridin-2-ylmethyl, N-(7-((3-chloro-4-fluorophenyl)carbamoyl)-2,3-dihydrobenzo[b]thiophen-3-yl) carbamate]
- EC50 [4]: > 25 µM
